{"source": "patent US11726082B2", "about": "“Screening method of drug candidates for treating disease using interaction between calcium and phosphatidylinositol phosphate” (Gachon University of Industry—Academic Cooperation …, priority 2017, dated 2023)", "molecules": {"B1": {"name": "PH domain of Akt protein: PH domain of Akt1 protein (SEQ. ID. NO: 13) (protein)", "chain": "MSDVAIVKEGWLHKRGEYIKTWRPRYFLLKNDGTFIGYKERPQDVDQREAPLNNFSVAQCQLMKTERPRPNTFIIRCLQWTTVIERTFHVETPEEREEWTTAIQTVADGLKKQEEEEMDFRSGSPSDNSGAEEMEVSLAKPKHR", "modifications": "PH domain of Akt protein"}}, "key": {"[1]": {"assay": "ITC of phospholipid liposomes with calcium", "format": "binding", "conditions": "liposome with POPC 80:20, 25° C., unlike POPS", "description": "Particularly, a protein solution was prepared by suspending a protein in 10 mM HEPES (pH 7.0). Phospholipid related ligand was titrated in the protein solution at 25° C. by using iTC200 micro calorimetry system (MicroCal Inc., USA), and the generated graph was corrected using Origin software (MicroCal Inc., USA). At this time, the phospholipid related ligand was prepared in the form of liposome by mixing POPC (1-palmitoyl-2-oleoyl-sn-glycero-3-phosphocholin) chloroform solution and POPS (1-palmitoyl-2-oleoyl-sn-glycero-3-phosphoserine), PI(3,4)P2 (1,2-dipalmotoyl-sn-glycero-3-phosphatidylinositol-3,4-[…]), PI(4,5)P2 (1,2-dipalmotoyl-sn-glycero-3-phosphatidylinositol-4,5-trisphosphate) or PI(3,4,5)P3 (1,2-dipalmotoyl-sn-glycero-3-phosphatidylinositol-3,4,5-trisphosphate) at the molar ratio of 80:20. The organic solvent was eliminated. The organic solvent was removed and a single layer lamellar was produced in HEPES (pH 7.0) using phospholipids."}, "Akt protein [2]": {"tested_on": "Akt protein", "assay": "Western blotting of Akt protein phosphorylation in insulin-treated HepG2 cells", "format": "cell-based, human", "conditions": "PMA 0, 10, 50 or 100 nM or ionomycin 0, 1, 5, 10 or 20 μM, 100 nM insulin, dose-dependent", "description": "First, male C57BL/6 mice at 8 weeks were divided into the fasted group wherein the mice were fasted for 16 hours and the refed group wherein the mice were fasted for 16 hours and then fed for 4 hours. Each group was sub-divided into the high fat diet group (HFD) and the normal diet group (chow). The liver cells were extracted from the raised mice by the same manner and under the same conditions as described in Example 1. The extracted liver cells were lysed in a lysis buffer containing phosphatase (Sigma-Aldrich, USA) and protease inhibitor (Sigma-Aldrich, USA). Proteins extracted from 2 to 3 mg of the liver tissue were homogenized by using a tissue homogenizer (TissuLyser, Qiagen, USA) for 1.5 minutes at a frequency of 1/30 sec. The homogenized lysate was centrifuged at 12,000 rpm for 15 minutes and the supernatant was obtained. The amount of the extracted protein was quantified by using a protein assay kit (Bio-Rad Laboratories, USA), and at this time BSA was used as a standard sample. 3 mg of the protein was mixed with 6× loading buffer, followed by electrophoresis using 10% SDS-PAGE gel. The electrophoresed protein was transferred onto a polyvinylidene fluoride (PVDF) membrane by using a transfer buffer at 4° C. with 120 V for 1.5 hours. The PVDF membrane on which the protein was transferred was pretreated with a blocking buffer prepared by mixing 5% skim milk with TBS buffer (TBS-T, pH 7.6) supplemented with Tween 20 for 30 minutes, and the membrane was washed with TBS-T. The washed membrane was added with the antibody against Akt (Cell Signaling Technology, USA), Akt(T308) (Cell Signaling Technology, USA), Akt(S473) (Cell Signaling Technology, USA), FOXO3A (Cell Signaling Technology, USA), FOXO3A(S253) (Cell Signaling Technology, USA), GSK-3β (Cell Signaling Technology, USA) or GSK-3β(S9) (Cell Signaling Technology, USA) protein as a primary antibody, followed by reaction at 4° C. for 12 hours. At this time, the antibody against actin (Santa Cruz Biotechnology, USA) protein was used for the control group. Upon completion of the reaction, the secondary antibody corresponding to the primary antibody was added thereto, followed by reaction at room temperature for 30 minutes. The PVDF membrane was washed with TBS-T buffer three times. The washed PVDF membrane was added with ECL solution (Thermo Scientific, USA), followed by image observation.\nTo investigate the changes in insulin sensitivity when insulin was added to the fatty liver cell model constructed in vitro, the phosphorylations of those proteins that were involved in insulin signal transduction were examined. PA was added to the human HepG2 cells prepared in Example 3, followed by reaction for 24 hours. […]"}, "Akt protein [3]": {"tested_on": "Akt protein", "assay": "Western blot of Akt activity with C2-Akt fusion protein and PI3K co-treated with PTEN or SHIP2", "format": "cell-based", "conditions": "cells with C2-Akt fusion protein and PI3K vectors co-treated with PTEN or SHIP2", "description": "Particularly, the experiment was performed by the same manner under the same conditions as described in Example 2 except that the vector expressing the C2-Akt fusion protein and the vector expressing PI3K protein were co-treated with PTEN or SHIP2 and the antibody against Akt (Cell Signaling Technology, USA), Akt(T308) (Cell Signaling Technology, USA), Akt(S473) (Cell Signaling Technology, USA), PI3K (Cell Signaling Technology, USA), PTEN (Cell Signaling Technology, USA) or SHIP2 (Upstate Biotechnology, USA) protein was used as the primary antibody."}, "PH domain of Akt protein": {"biological_target": "T1, PH domain of Akt protein (Homo sapiens, UniProt P31749)", "T1 construct": "His6 (C); made in house; host or cells: E. coli BL21 (DE3), pET28a vector", "assay": "Protein-lipid binding assay (PIP-strips) with PH domain of Akt protein", "description": "E. coli BL21 (DE3) cells were transfected with a vector containing the PH domain of Akt protein, and the cells were cultured in 50 Ml of LB medium supplemented with 50 μg/Ml of kanamycin. The culture was performed at 37° C. for 8 hours. Upon completion of the culture, the cells were transferred into a 25° C. agitation incubator. The cells were cultured until OD600 reached 0.6 to 1.0, and then 1 mM IPTG (isopropyl-β-D-1-thiogalactopyranoside) was added thereto. 18 hours after the addition of IPTG, centrifugation was performed at 7,000×g at 4° C. for 10 minutes to obtain cells. Sonication equilibrium buffer (150 mM NaCl, 50 mM Tris-HCl, pH 7.6) was added to the obtained cells. The cells added with the sonication equilibrium buffer were lysed by sonication. The PH domain of Akt protein was purified from the cell lysate by […] using nickel-nitrilotriacetic acid and HiLoad Superdex-200 column (GE Healthcare life science, USA). The purity of the purified protein was examined by SDS-PAGE (sodium dodecyl sulfate polyacrylamide gel electrophoresis).\nParticularly, the analysis was performed by using membrane-immobilized lipid strips (PIP-strips, Echelon Biosciences Inc., USA). […]"}, "CHO cells": {"tested_on": "CHO cells", "assay": "Migration of mCherry-tagged PH or C2 domain to the cell membrane, fluorescence microscopy", "format": "cell-based", "source_text": "First, the PH domain of Akt1 protein or C2 domain of PKCβ protein was obtained by PCR using the primers consisting of the nucleotide sequences represented by […]. The obtained PCR product was cloned in pmCherry-C1 vector (Takara Clontech, Japan) by the conventional cloning method. CHO cells were transfected with the prepared vector by using lipofectamine according to the manufacturer's protocol. The transfected cells were selected by using blastidicin. Then, mCherry positive cells were confirmed by flow cytometry.\nPMA at the concentration of 100 nM, ionomycin at the concentration of 10 μM or insulin at the concentration of 100 nM was added to the cells expressing the PH domain of Akt1 protein or the C2 domain of PKCβ protein and the location of the expressed protein was confirmed by fluorescence microscopy."}}, "note": "Entries after “also recorded” stand apart in the source; their conditions may differ.", "data": [{"molecule": "CCCCCCCCCCCCCCCC(=O)OCC(COP(=O)(O)OC1C(O)C(OP(=O)(O)O)C(OP(=O)(O)O)C(OP(=O)(O)O)C1O)OC(=O)CCCCCCCCCCCCCCC", "note": "(stereo not drawn) [PI(3,4,5)P3, 1,2-dipalmotoyl-sn-glycero-3-phosphatidylinositol-3,4,5-trisphosphate]", "values": [{"measurement": "binding to calcium", "setting": "[1]", "result": "high affinity; also recorded: strong binding force"}]}, {"molecule": "C[C@H](CCC(=O)O)C[C@H](C)C[C@H](C)C(=O)/C=C(\\O)[C@H](C)C[C@H](C)C/C=C/[C@@H](C)[C@@H](O)[C@@H](C)[C@@H](O)C[C@@H]1CC[C@@](C)([C@H]2CC[C@@](C)([C@@H](C)O)O2)O1", "note": "[ionomycin]", "values": [{"measurement": "phosphorylation of Akt protein", "setting": "Akt protein [2]", "result": "significantly inhibited"}]}, {"molecule": "CCCCCCCCCCCCCC(=O)O[C@@H]1[C@@H](C)[C@@]2(O)[C@@H](C=C(CO)C[C@]3(O)C(=O)C(C)=C[C@@H]23)[C@@H]2C(C)(C)[C@]12OC(C)=O", "note": "[PMA, phorbol myristate acetate]", "values": [{"measurement": "phosphorylation of Akt protein", "setting": "Akt protein [2]", "result": "significantly inhibited"}]}, {"molecule": "CCCCCCCCCCCCCCCC(=O)OCC(COP(=O)(O)OC1C(O)C(O)C(OP(=O)(O)O)C(OP(=O)(O)O)C1O)OC(=O)CCCCCCCCCCCCCCC", "note": "(stereo not drawn) [PI(3,4)P2, 1,2-dipalmotoyl-sn-glycero-3-phosphatidylinositol-3,4-triphosphate]", "values": [{"measurement": "binding to calcium", "setting": "[1]", "result": "high affinity; also recorded: strong binding force"}]}, {"molecule": "PTEN: phosphatase and tensin homolog, co-treated", "values": [{"measurement": "Akt protein activity", "setting": "Akt protein [3]", "result": "reduced"}]}, {"molecule": "CCCCCCCCCCCCCCCC(=O)OCC(COP(=O)(O)OC1C(O)C(O)C(OP(=O)(O)O)C(OP(=O)(O)O)C1O)OC(=O)CCCCCCCCCCCCCCC", "note": "(stereo not drawn) [PI(4,5)P2, 1,2-dipalmotoyl-sn-glycero-3-phosphatidylinositol-4,5-trisphosphate]", "values": [{"measurement": "binding to calcium", "setting": "[1]", "result": "high affinity; also recorded: strong binding force"}]}, {"molecule": "B1", "values": [{"measurement": "binding to PI(3,4)P2 or PI(3,4,5)P3", "setting": "PH domain of Akt protein", "result": "bound"}, {"measurement": "migration to the cell membrane", "setting": "CHO cells; addition of insulin 100 nM", "result": "ted to the cell membrane"}, {"measurement": "migration to the cell membrane", "setting": "CHO cells; increased intracellular calcium concentration (PMA 100 nM, ionomycin 10 μM)", "result": "not observed; also recorded: inhibited"}]}]}
